Source: patent US12655101B2, “Small molecules with antibacterial activity” (NEW MEXICO TECH UNIVERSITY RESEARCH PARK CORPORATION, priority 2021, dated 2026)
In brackets after ≈: the same amount, converted by molar mass. Like-named read-outs stand apart in the source and are kept apart here.

Tests used:
Assay type in all cases: cell-based
A. baumannii ATCC 1515 = experiment: Membrane depolarization detected by DiOC2(3); conditions: 1xMIC; 20 μM CCCP; 25 minutes
A. baumannii ATCC 15151 [1] = experiment: Filamentation with ciprofloxacin and Compound 25 on A. baumannii; conditions: 18 hours
Method: A. baumannii ATCC 15151: […] The culture tubes were incubated for 18 hours at 37° C. After 18 hours incubation, took 3 μL of cells from each well and plated on microscope slide to observe the following: […]

S. aureus = experiment: Evolution of resistance in S. aureus over 32 days; conditions: Staphylococcus aureus
From the text: Over a period of 32 days, S. aureus cells were exposed to sub-inhibitory concentrations of the indicated compound, norfloxacin, or oxacillin and sub-cultured at the newly emerged, sub-inhibitory concentration.

[2] = test system: A. baumannii ATCC BAA-1797; experiment: MIC on A. baumannii ATCC BAA-1797; conditions: Acinetobacter baumannii
Method: A. baumannii: A. baumannii ATCC BAA-1797 was grown from a glycerol stock by placing a small volume of cells onto a MHA plate. The MHA plate was incubated overnight at 37° C. A single colony was used to inoculate MHB to obtain a bacterial broth suspension. The MHB broth suspension was grown at 37° C. on a rotary shaking incubator (100 rpm) for 12 hours. The bacterial cell concentration was adjusted to ˜5×10^5 CFU/mL in MHB or MHB+10%, 20% or 40% FBS using OD at 595 nm. 500 μL aliquots of the adjusted bacterial cell suspension were placed into borosilicate glass tubes. The cell suspensions were treated with a compound of interest, and the treatments were serially diluted two-fold. The culture tubes were incubated for 18 hours at 37° C. Efficacy was either assessed visually or by adding 10% v/v MTT (5 mg/mL stock) after the 18 hour incubation period. The cell suspensions were subsequently incubated for 10 minutes to allow the MTT reagent to carry out the colorimetric reaction. The OD was read at 595 nm.

[3] = test system: UmuC (error-prone polymerase); experiment: UmuC gene expression by rtPCR in S. aureus; conditions: sub-inhibitory norfloxacin
From the text: RecA and error-prone polymerase subunit UmuC transcripts were quantitatively measured using rtPCR in S. aureus. S. aureus was challenged with sub-inhibitory concentrations of DNA-damaging norfloxacin.

[4] = test system: RecA-GFP fusion protein in E. coli MG1655; experiment: Inhibition of norfloxacin-triggered RecA-GFP induction in E. coli MG1655; conditions: for killing of E. coli: PME or norfloxacin 30 minutes, then compound, 3.5 hours; for SOS response (RecA-GFP induction): norfloxacin-triggered, sub-potent Polymixin E to facilitate entry
Method: An increase in DNA damage-induced RecA protein expression is required for identification and repair of DNA lesions. LexA-repressed transcription of a norfloxacin-triggered SOS response was measured by detecting an increase in RecA-GFP fusion protein fluorescence in an E. coli recombinant model. The compounds of the disclosure inhibited RecA-GFP induction and presumably, the concurrent SOS response. Inhibition of RecA-GFP expression correlated with an increase in cell death, most likely as a result of ALD activation. Sub-potent concentrations of Polymixin E were used to facilitate entry of the compounds into cells.
E. coli MG1655 was grown from a glycerol stock by placing a small volume of cells onto a MHA plate. The MHA plate was incubated overnight at 37° C. A single colony was subsequently used to inoculate MHB+10 μg/mL kanamycin to obtain a bacterial broth suspension. This was grown in at 37° C. on a rotary shaking incubator (100 rpm) for 12 hours. The bacterial cell concentration was adjusted to ˜5×10^5 colony forming units per milliliter (CFU/mL) in MHB using optical density at 595 nm. Treated cells with polymyxin E (PME) or norfloxacin (in μg/ml) at indicated concentrations for 30 minutes at 37° C. and then added a compound of the disclosure at indicated micromolar concentrations. Incubated for 3.5 hours at 37° C. Cell samples were read on the flow cytometer to detect (green fluorescent) RLU RecA expression and/or shutdown.
E. coli MG1655 was grown from a glycerol stock by placing a small volume of cells onto a MHA plate. The MHA plate was incubated overnight at 37° C. A single colony was subsequently used to inoculate MHB+10 μg/mL kanamycin to obtain a bacterial broth suspension. The MHB broth suspension was grown at 37° C. on a rotary shaking incubator (100 rpm) for 12 hours. The bacterial cell concentration was adjusted to ˜5×10^5 CFU/mL in MHB using OD at 595 nm.
Cells were treated with 0.03 μg/mL and 0.06 μg/mL norfloxacin for 30 minutes at 37° C. Then, 100 μM of the compounds were added. The cells were incubated for 3.5 hours at 37° C. 200 μL aliquots were removed and read by a flow cytometer to detect RecA production and/or shutdown. The cells were incubated for an additional 18 hours at 37° C. to assess overall toxicity.

A. baumannii ATCC 15151 [5] = experiment: DNA degradation (agarose gel), drug-sensitive strain; conditions: 1.5% H2O2, 10 μg/mL ciprofloxacin, 100 μM Compound 25; 3 hours
E. coli pUC18 = experiment: Nitrocefin β-lactamase assay (outer membrane disruption); conditions: 10 μM melittin; 10 μg/mL PME; 6, 12, 24 μM Compound 25 and 26; 100 μM Compound 27; 50 μM Compound 15; 30 minutes
Method: E. coli pUC18 was grown from a glycerol stock by placing a small volume of cells onto a MHA plate. The MHA plate was incubated overnight at 37° C. A single colony was subsequently used to inoculate MHB+100 μg/mL ampicillin to obtain a bacterial broth suspension. The MHB broth suspension was grown at 37° C. on a rotary shaking incubator (100 rpm) for 12 hours. The cells were washed 3× by centrifuging and washing with 1 mL medium 200. The washed bacterial cell concentration was adjusted to ˜1×10^7 CFU/mL in medium 200 using OD at 595 nm. The cells were treated cells with 10 μM melittin; 6, 12, 24 μM Compound 25; 6 μM, 12 μM, 24 μM Compound 26; 100 μM Compound 27; 50 μM Compound 15; and 10 μg/mL PME. The cells were incubated at 37° C. for 30 minutes; added 50 μM nitrocefin and incubated 10 minutes at 37° C.
pUC18 E. coli carry an ampicillin resistance gene and produce β-lactamase.

E. coli pNMT41 = experiment: 6-chloro-4-methyl-umbelliferyl-β-D-glucuronide assay for beta-glucuronidase (inner membrane disruption); conditions: 10 μg/mL PME
Method: E. coli pNMT 41 was grown from a glycerol stock by placing a small volume of cells onto a MHA plate. The MHA plate was incubated overnight at 37° C. A single colony was subsequently used to inoculate MHB+100 μg/mL ampicillin to obtain a bacterial broth suspension. The MHB broth suspension was grown at 37° C. on a rotary shaking incubator (100 rpm) for 12 hours. The bacterial cell concentration was adjusted to ˜1×10^7 CFU/mL in MHB using OD at 595 nm. The cells were washed 3× by spinning by centrifuge and washing with 500 μL medium 200. The cells were resuspended in 7 mL medium 200. The cells were treated with 10 μM melittin, 6, 12, 24, and 100 μM Compound 25, and 10 μg/mL PME. The cells were incubated at 37° C. for 30 minutes. 1 μM umbelliferyl was added, and the cells were incubated further for 10 minutes at 37° C.
The cells were then incubated at 37° C. for 45 minutes. 1 μM umbelliferyl was added, and the cells were incubated further for 10 minutes at 37° C.

[6] = test system: A. baumannii ATCC BAA-1797; experiment: Colony counts of A. baumannii ATCC BAA-1797 treated with 4xMIC for 16 hours; conditions: 1 μg/mL PME, 1 mM PAO, compounds at 4xMIC
[7] = 0 h, read-out: Initial MIC Day 0
[8] = 10 μM melittin, 6, 12, 24, 100 μM Compound 25, 30 minutes

N#CC(C#N)=NNc1cccc(Cl)c1 [CCCP, reference compound]
cell membrane depolarization (A. baumannii ATCC 1515): depolarized the cell membrane

O=C(O)c1cn(C2CC2)c2cc(N3CCNCC3)c(F)cc2c1=O [Ciprofloxacin, reference compound]
cell morphology and growth (A. baumannii ATCC 15151 [1]; 125 ng/mL ciprofloxacin): largely elongated in morphology and growth inhibition was observed | cell morphology and growth (A. baumannii ATCC 15151 [1]; single agent: 50 ng/mL ciprofloxacin or […] Compound 25): slightly elongated and some growth inhibition was observed

COc1ccc(/N=N/c2c(-c3ccc(OC)cc3)[nH]c3ccccc23)cc1 [Compound 46, (E)-2-(4-methoxyphenyl)-3-((4-methoxyphenyl)diazenyl)-1H-indole]
MIC (S. aureus; [7]): 1 to 2 µM (≈ 0.357 to 0.715 µg/mL) | MIC (S. aureus; read-out: Final MIC Day 32): 1 to 2 µM (≈ 0.357 to 0.715 µg/mL) | MIC ([2]; ATCCBAA1797, 18 h, read-out: MIC in the presence of 40% FBS, A. baumannii ATCC BAA-1797, 40% FBS): > 100 µM | MIC ([2]; ATCCBAA1797, A. baumannii ATCC BAA-1797, absence of serum, read-out: MIC in the absence of serum): > 100 µM | UmuC (error-prone polymerase) gene expression [3]: transcriptional inhibition

Brc1ccc(/N=N/c2c[nH]c3ccccc23)cc1 [Compound 47, (E)-3-((4-bromophenyl)diazenyl)-1H-indole]
MIC (S. aureus; [7]): 4 µM (≈ 1.2 µg/mL) | MIC (S. aureus; read-out: Final MIC Day 32): 4 µM (≈ 1.2 µg/mL) | killing of E. coli [4]: killed E. coli | SOS response (RecA-GFP induction) [4]: inhibited the SOS response

Clc1ccc(Oc2c(-c3ccc(Cl)cc3)[nH]c3ccccc23)cc1 [Compound 49, 3-(4-chlorophenoxy)-2-(4-chlorophenyl)-1H-indole]
MIC (S. aureus; [7]): 2 µM (≈ 0.708 µg/mL) | MIC (S. aureus; read-out: Final MIC Day 32): 1 µM (≈ 0.354 µg/mL) | killing of E. coli [4]: killed E. coli | SOS response (RecA-GFP induction) [4]: inhibited the SOS response

OO [Compound H2O2, hydrogen peroxide, reference compound]
DNA degradation (A. baumannii ATCC 15151 [5]): degraded DNA completely

CC[C@H](C)[C@H](NC(=O)CN)C(=O)NCC(=O)N[C@@H](C)C(=O)N[C@H](C(=O)N[C@@H](CC(C)C)C(=O)N[C@@H](CCCCN)C(=O)N[C@H](C(=O)N[C@@H](CC(C)C)C(=O)N[C@H](C(=O)N[C@H](C(=O)NCC(=O)N[C@@H](CC(C)C)C(=O)N1CCC[C@H]1C(=O)N[C@@H](C)C(=O)N[C@@H](CC(C)C)C(=O)N[C@H](C(=O)N[C@@H](CO)C(=O)N[C@@H](Cc1c[nH]c2ccccc12)C(=O)N[C@H](C(=O)N[C@@H](CCCCN)C(=O)N[C@@H](CCCNC(=N)N)C(=O)N[C@@H](CCCCN)C(=O)N[C@@H](CCCNC(=N)N)C(=O)N[C@@H](CCC(N)=O)C(=O)N[C@@H](CCC(N)=O)C(N)=O)[C@@H](C)CC)[C@@H](C)CC)[C@@H](C)O)[C@@H](C)O)C(C)C)C(C)C [Melittin, melittin]
outer membrane disruption (β-lactamase leakage, nitrocefin colour) (E. coli pUC18): high concentration of β-lactamase in the supernatant | inner membrane disruption (GUS fluorescence) (E. coli pNMT41; [8]): disrupt inner membrane

polymyxin E [PME]
outer membrane disruption (β-lactamase leakage, nitrocefin colour) (E. coli pUC18): high concentration of β-lactamase in the supernatant | cell viability after 16 hours of treatment [6]: cells were still viable | inner membrane disruption (GUS fluorescence) (E. coli pNMT41; [8]): disrupt inner membrane | inner membrane disruption (GUS fluorescence) (E. coli pNMT41; separate experiment, 12.5 μM Compound 14, 45 minutes): disrupts inner membrane
